Measured values reported in patent US9931327B2, “Derivatives of 1-phenyl-2-pyridinyl alkyl alcohols as phosphodiesterase inhibitors” (Chiesi Farmaceutici S.p.A., priority 2011, dated 2018).

Test system: LPS-induced TNF-α release in peripheral blood mononuclear cells (PBMCs)
Experiment: In vitro determination of PDE4 inhibitory activity in the PBMCs assay (LPS-induced TNF-α release)
Format: cell-based, human
Settings: PBMC; human PBMCs, LPS 3 ng/ml, 18 hours, TNF-α by ELISA; read-out: PDE4 inhibition (IC50, 50% inhibition of LPS-induced TNF-α release)
Outline: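 Cryopreserved human PBMCs (10^5 cells/well) pre-incubated 30 min with compound (10^−12 to 10^−6 M or 10^−3 to 10^−7 M), then stimulated with LPS 3 ng/ml for 18 h at 37 °C. TNF-α in medium by ELISA; IC50 as mean ± 95% confidence limits.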

Q: For `O=C(O[C@@H](Cc1c(Cl)c[n+]([O-])cc1Cl)c1ccc(OC(F)F)c(OCC2CC2)c1)[C@@H]1CCCN1S(=O)(=O)c1ccccc1` [Compound 86, 3,5-dichloro-4-((S)-2-(3-(cyclopropylmethoxy)-4-(difluoromethoxy)phenyl)-2-((S)-1-(phenylsulfonyl)pyrrolidine-2-carbonyloxy)ethyl)pyridine 1-oxide], which IC50 is on record?
A: The IC50 was 100 to 1000 pM.

Q: `COc1ccc(S(=O)(=O)N2CCC[C@H]2C(=O)O[C@@H](Cc2c(Cl)c[n+]([O-])cc2Cl)c2ccc(OC(F)F)c(OCC3CC3)c2)cc1C(=O)N(C)C` [Compound 124, 3,5-dichloro-4-((S)-2-(3-(cyclopropylmethoxy)-4-(difluoromethoxy)phenyl)-2-((S)-1-(3-(dimethylcarbamoyl)-4-methoxyphenylsulfonyl)pyrrolidine-2-carbonyloxy)ethyl)pyridine 1-oxide] was tested. Which IC50 did it give?
A: Its IC50 is under 100 pM.

Q: With `O=C(O[C@@H](Cc1c(Cl)c[n+]([O-])cc1Cl)c1ccc(OC(F)F)c(OCC2CC2)c1)[C@@H]1SCCN1S(=O)(=O)c1ccc2c(c1)OCCO2` [Compound 201, 3,5-dichloro-4-((S)-2-(3-(cyclopropylmethoxy)-4-(difluoromethoxy)phenyl)-2-((S)-3-(2,3-dihydrobenzo[b][1,4]dioxin-6-ylsulfonyl)thiazolidine-2-carbonyloxy)ethyl)pyridine 1-oxide] as the compound, how does the IC50 read?
A: The IC50 was 100 to 1000 pM.

Q: `CN1CCN(CCS(=O)(=O)N2CCS[C@H]2C(=O)O[C@@H](Cc2c(Cl)c[n+]([O-])cc2Cl)c2ccc(OC(F)F)c(OCC3CC3)c2)CC1` [Compound 288, 3,5-dichloro-4-((S)-2-(3-(cyclopropylmethoxy)-4-(difluoromethoxy)phenyl)-2-((S)-3-(2-(4-methylpiperazin-1-yl)ethylsulfonyl)thiazolidine-2-carbonyloxy)ethyl)pyridine 1-oxide] was tested. Which IC50 did it give?
A: The IC50 was 100 to 1000 pM.

Q: Which IC50 does the source give for `CS(=O)(=O)c1ccc(S(=O)(=O)N2CCS[C@H]2C(=O)O[C@@H](Cc2c(Cl)c[n+]([O-])cc2Cl)c2ccc(OC(F)F)c(OCC3CC3)c2)cc1` [Compound 109, 3,5-dichloro-4-((S)-2-(3-(cyclopropylmethoxy)-4-(difluoromethoxy)phenyl)-2-((S)-3-(4-(methylsulfonyl)phenylsulfonyl)thiazolidine-2-carbonyloxy)ethyl)pyridine 1-oxide] here?
A: Its IC50 is under 100 pM.

Q: Which IC50 does the source give for `O=C(O[C@@H](Cc1c(Cl)c[n+]([O-])cc1Cl)c1ccc(OC(F)F)c(OCC2CC2)c1)C1SCCN1S(=O)(=O)c1ccc(F)cc1F` (stereo partly drawn) [Compound 67, 3,5-dichloro-4-((2S)-2-(3-(cyclopropylmethoxy)-4-(difluoromethoxy)phenyl)-2-(3-(2,4-difluorophenylsulfonyl)thiazolidine-2-carbonyloxy)ethyl)pyridine 1-oxide] here?
A: The IC50 was 100 to 1000 pM.

Q: `CN(C)C(=O)c1cccc(S(=O)(=O)N2CCCC[C@H]2C(=O)O[C@@H](Cc2c(Cl)c[n+]([O-])cc2Cl)c2ccc(OC(F)F)c(OCC3CC3)c2)c1` [Compound 82, 3,5-dichloro-4-((S)-2-(3-(cyclopropylmethoxy)-4-(difluoromethoxy)phenyl)-2-((S)-1-(3-(dimethylcarbamoyl)phenylsulfonyl)piperidine-2-carbonyloxy)ethyl)pyridine 1-oxide] was tested. Which IC50 did it give?
A: Its IC50 is under 100 pM.

Q: For `CN(C)C(=O)c1cccc(C(=O)N2CCC[C@@H]2C(=O)O[C@@H](Cc2c(Cl)c[n+]([O-])cc2Cl)c2ccc(OC(F)F)c(OCC3CC3)c2)c1` [Compound 185, 3,5-dichloro-4-((S)-2-(3-(cyclopropylmethoxy)-4-(difluoromethoxy)phenyl)-2-((R)-1-(3-(dimethylcarbamoyl)benzoyl)pyrrolidine-2-carbonyloxy)ethyl)pyridine 1-oxide], which IC50 is on record?
A: Its IC50 is 100 to 1000 pM.

Q: For `O=C(O[C@@H](Cc1c(Cl)c[n+]([O-])cc1Cl)c1ccc(OC(F)F)c(OCC2CC2)c1)C1SCCN1S(=O)(=O)c1cccs1` (stereo partly drawn) [Compound 62, 3,5-dichloro-4-((2S)-2-(3-(cyclopropylmethoxy)-4-(difluoromethoxy)phenyl)-2-(3-(thiophen-2-ylsulfonyl)thiazolidine-2-carbonyloxy)ethyl)pyridine 1-oxide], which IC50 is on record?
A: Its IC50 is 100 to 1000 pM.

Q: `Cc1cc(S(=O)(=O)N2CCS[C@H]2C(=O)O[C@@H](Cc2c(Cl)c[n+]([O-])cc2Cl)c2ccc(OC(F)F)c(OCC3CC3)c2)c(C)s1` [Compound 203, 3,5-dichloro-4-((S)-2-(3-(cyclopropylmethoxy)-4-(difluoromethoxy)phenyl)-2-((S)-3-(2,5-dimethylthiophen-3-ylsulfonyl)thiazolidine-2-carbonyloxy)ethyl)pyridine 1-oxide] was tested. Which IC50 did it give?
A: The IC50 was 100 to 1000 pM.

Q: With `Nc1cccc(S(=O)(=O)N2CCS[C@H]2C(=O)O[C@@H](Cc2c(Cl)c[n+]([O-])cc2Cl)c2ccc(OC(F)F)c(OCC3CC3)c2)c1` [Compound 140, 4-((S)-2-((S)-3-(3-aminophenylsulfonyl)thiazolidine-2-carbonyloxy)-2-(3-(cyclopropylmethoxy)-4-(difluoromethoxy)phenyl)ethyl)-3,5-dichloropyridine 1-oxide] as the compound, how does the IC50 read?
A: Its IC50 is under 100 pM.

Q: Which IC50 does the source give for `O=C(O[C@@H](Cc1c(Cl)c[n+]([O-])cc1Cl)c1ccc(OC(F)F)c(OCC2CC2)c1)[C@@H]1SCCN1S(=O)(=O)c1cccc(CO)c1` [Compound 271, 3,5-dichloro-4-((S)-2-(3-(cyclopropylmethoxy)-4-(difluoromethoxy)phenyl)-2-((S)-3-(3-(hydroxymethyl)phenylsulfonyl)thiazolidine-2-carbonyloxy)ethyl)pyridine 1-oxide] here?
A: Its IC50 is under 100 pM.

Q: How did the IC50 turn out when `O=C1NC(=O)c2cc(S(=O)(=O)N3CCSC3C(=O)O[C@@H](Cc3c(Cl)c[n+]([O-])cc3Cl)c3ccc(OC(F)F)c(OCC4CC4)c3)ccc21` (stereo partly drawn) [Compound 58, 3,5-dichloro-4-((2S)-2-(3-(cyclopropylmethoxy)-4-(difluoromethoxy)phenyl)-2-(3-(1,3-dioxoisoindolin-5-ylsulfonyl)thiazolidine-2-carbonyloxy)ethyl)pyridine 1-oxide] was run?
A: Its IC50 is 100 to 1000 pM.

Q: With `CN(C)Cc1cccc(C(=O)N2CCSC2C(=O)O[C@@H](Cc2c(Cl)c[n+]([O-])cc2Cl)c2ccc(OC(F)F)c(OCC3CC3)c2)c1` (stereo partly drawn) [Compound 34, 3,5-dichloro-4-((2S)-2-(3-(cyclopropylmethoxy)-4-(difluoromethoxy)phenyl)-2-(3-(3-((dimethylamino)methyl)benzoyl)thiazolidine-2-carbonyloxy)ethyl)pyridine 1-oxide] as the compound, how does the IC50 read?
A: Its IC50 is 100 to 1000 pM.

Q: Which IC50 does the source give for `O=C(O)c1cccc(S(=O)(=O)N2CCSC2C(=O)O[C@@H](Cc2c(Cl)c[n+]([O-])cc2Cl)c2ccc(OC(F)F)c(OCC3CC3)c2)c1` (single isomer, unassigned) [Compound 75, 4-((S)-2-((S)-3-(3-carboxyphenylsulfonyl)thiazolidine-2-carbonyloxy)-2-(3-(cyclopropylmethoxy)-4-(difluoromethoxy)phenyl)ethyl)-3,5-dichloropyridine 1-oxide or 4-((S)-2-((R)-3-(3-carboxyphenylsulfonyl)thiazolidine-2-carbonyloxy)-2-(3-(cyclopropylmethoxy)-4-(difluoromethoxy)phenyl)ethyl)-3,5-dichloropyridine 1-oxide] here?
A: Its IC50 is 100 to 1000 pM.

Q: With `O=C(O[C@@H](Cc1c(Cl)c[n+]([O-])cc1Cl)c1ccc(OC(F)F)c(OCC2CC2)c1)[C@@H]1SCCN1C(=O)c1ccccc1` [Compound 186, 4-((S)-2-((S)-3-benzoylthiazolidine-2-carbonyloxy)-2-(3-(cyclopropylmethoxy)-4-(difluoromethoxy)phenyl)ethyl)-3,5-dichloropyridine 1-oxide] as the compound, how does the IC50 read?
A: Its IC50 is 100 to 1000 pM.

Q: How did the IC50 turn out when `Cn1ccnc1S(=O)(=O)N1CCS[C@H]1C(=O)O[C@@H](Cc1c(Cl)cncc1Cl)c1ccc(OC(F)F)c(OCC2CC2)c1` [Compound 243, (S)-((S)-1-(3-(cyclopropylmethoxy)-4-(difluoromethoxy)phenyl)-2-(3,5-dichloropyridin-4-yl)ethyl) 3-(1-methyl-1H-imidazol-2-ylsulfonyl)thiazolidine-2-carboxylate] was run?
A: Its IC50 is 100 to 1000 pM.

Q: With `COc1ccc(S(=O)(=O)N2CCS[C@H]2C(=O)O[C@@H](Cc2c(Cl)c[n+]([O-])cc2Cl)c2ccc(OC(F)F)c(OCC3CC3)c2)cc1` [Compound 110, 3,5-dichloro-4-((S)-2-(3-(cyclopropylmethoxy)-4-(difluoromethoxy)phenyl)-2-((S)-3-(4-methoxyphenylsulfonyl)thiazolidine-2-carbonyloxy)ethyl)pyridine 1-oxide] as the compound, how does the IC50 read?
A: Its IC50 is 100 to 1000 pM.

Q: With `NS(=O)(=O)c1cccc(S(=O)(=O)N2CCSC2C(=O)O[C@@H](Cc2c(Cl)c[n+]([O-])cc2Cl)c2ccc(OC(F)F)c(OCC3CC3)c2)c1` (stereo partly drawn) [Compound 59, 3,5-dichloro-4-((2S)-2-(3-(cyclopropylmethoxy)-4-(difluoromethoxy)phenyl)-2-(3-(3-sulfamoylphenylsulfonyl)thiazolidine-2-carbonyloxy)ethyl)pyridine 1-oxide] as the compound, how does the IC50 read?
A: Its IC50 is under 100 pM.

Q: How did the IC50 turn out when `N#Cc1ccccc1S(=O)(=O)N1CCS[C@H]1C(=O)O[C@@H](Cc1c(Cl)c[n+]([O-])cc1Cl)c1ccc(OC(F)F)c(OCC2CC2)c1` [Compound 200, 3,5-dichloro-4-((S)-2-((S)-3-(2-cyanophenylsulfonyl)thiazolidine-2-carbonyloxy)-2-(3-(cyclopropylmethoxy)-4-(difluoromethoxy)phenyl)ethyl)pyridine 1-oxide] was run?
A: The IC50 was 100 to 1000 pM.

Q: How did the IC50 turn out when `O=C(O[C@@H](Cc1c(Cl)c[n+]([O-])cc1Cl)c1ccc(OC(F)F)c(OCC2CC2)c1)[C@@H]1SCCN1S(=O)(=O)c1cccnc1` [Compound 88, 3,5-dichloro-4-((S)-2-(3-(cyclopropylmethoxy)-4-(difluoromethoxy)phenyl)-2-((S)-3-(pyridin-3-ylsulfonyl)thiazolidine-2-carbonyloxy)ethyl)pyridine 1-oxide] was run?
A: Its IC50 is under 100 pM.

Q: `COc1cccc(S(=O)(=O)N2CCS[C@H]2C(=O)O[C@@H](Cc2c(Cl)c[n+]([O-])cc2Cl)c2ccc(OC(F)F)c(OCC3CC3)c2)c1` [Compound 103, 3,5-dichloro-4-((S)-2-(3-(cyclopropylmethoxy)-4-(difluoromethoxy)phenyl)-2-((S)-3-(3-methoxyphenylsulfonyl)thiazolidine-2-carbonyloxy)ethyl)pyridine 1-oxide] was tested. Which IC50 did it give?
A: Its IC50 is 100 to 1000 pM.
